Target: CSF-1R (Homo sapiens, UniProt P07333)
Experiment: Peptide (non-phosphorylated) assay, fluorescence polarization competition immunoassay
Assay type: biochemical
Details: 0.7 nM CSF-1R, 308 μM SYEGNSYTFIDPTQ peptide, 1 mM ATP, 80 min; mean of at least three determinations; read-out: c-fms Peptide IC50
How it was run: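 Read-out is fluorescence polarization: after EDTA quench, anti-phosphotyrosine antibody plus PTK green tracer compete with the phosphorylated peptide for 30 min. The CSF-1R reaction itself ran 80 min at room temperature after ATP addition. DMSO (4%) wells served as controls, positive controls pre-treated with EDTA.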

Chain of CSF-1R (P07333 20-972): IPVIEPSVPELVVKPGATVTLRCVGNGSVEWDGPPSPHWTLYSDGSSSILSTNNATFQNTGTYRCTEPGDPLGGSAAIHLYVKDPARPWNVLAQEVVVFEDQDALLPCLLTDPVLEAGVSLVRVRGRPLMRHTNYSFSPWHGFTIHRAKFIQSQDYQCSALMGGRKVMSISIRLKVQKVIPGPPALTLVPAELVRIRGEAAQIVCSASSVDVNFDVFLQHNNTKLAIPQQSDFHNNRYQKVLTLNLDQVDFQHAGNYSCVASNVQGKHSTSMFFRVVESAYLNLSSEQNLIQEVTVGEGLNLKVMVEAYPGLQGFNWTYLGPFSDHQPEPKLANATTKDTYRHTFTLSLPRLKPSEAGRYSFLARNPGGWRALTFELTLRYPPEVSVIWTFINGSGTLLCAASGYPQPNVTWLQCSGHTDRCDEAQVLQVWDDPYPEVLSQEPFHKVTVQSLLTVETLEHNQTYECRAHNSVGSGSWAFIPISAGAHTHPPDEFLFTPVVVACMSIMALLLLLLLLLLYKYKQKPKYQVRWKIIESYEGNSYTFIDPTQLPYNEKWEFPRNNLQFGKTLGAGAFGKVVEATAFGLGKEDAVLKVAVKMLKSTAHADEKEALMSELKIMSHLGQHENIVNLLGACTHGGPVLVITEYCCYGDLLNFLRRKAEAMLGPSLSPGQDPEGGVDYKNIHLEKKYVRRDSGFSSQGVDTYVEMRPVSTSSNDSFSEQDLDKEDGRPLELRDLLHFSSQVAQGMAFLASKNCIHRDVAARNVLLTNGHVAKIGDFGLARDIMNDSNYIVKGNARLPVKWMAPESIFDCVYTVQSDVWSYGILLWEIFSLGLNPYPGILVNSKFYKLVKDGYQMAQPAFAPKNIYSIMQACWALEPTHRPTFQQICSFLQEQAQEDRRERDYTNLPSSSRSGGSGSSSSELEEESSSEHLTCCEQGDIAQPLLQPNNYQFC

Row | SMILES | IC50
1 | CONC(=O)c1cn(-c2ccc3c(c2)CCC3)c2nc(Nc3ccc(CCN4CCS(=O)(=O)CC4)cc3)ncc2c1=O [Cpd 206, 2-{4-[2-(1,1-dioxo-1λ^6-thiomorpholin-4-yl)-ethyl]-phenylamino}-8-indan-5-yl-5-oxo-5,8-dihydro-pyrido[2,3-d]pyrimidine-6-carboxylic acid methoxy-amide] | 1.2 nM
2 | NC(=O)c1cn(-c2ccc3c(c2)CCC3)c2nc(Nc3ccc(C(=O)N4CCCC4)cc3)ncc2c1=O [Cpd 122, 8-indan-5-yl-5-oxo-2-[4-(pyrrolidine-1-carbonyl)-phenylamino]-5,8-dihydro-pyrido[2,3-d]pyrimidine-6-carboxylic acid amide] | 6.6 nM
3 | CONC(=O)c1cn(-c2ccc(Cl)cc2)c2nc(Nc3ccc(CCN4CCN(C)CC4)cc3)ncc2c1=O [Cpd 34, 8-(4-chloro-phenyl)-2-{4-[2-(4-methyl-piperazin-1-yl)-ethyl]-phenylamino}-5-oxo-5,8-dihydro-pyrido[2,3-d]pyrimidine-6-carboxylic acid methoxy-amide] | 3.8 nM
4 | CCONC(=O)c1cn(C2CCCCC2)c2nc(Nc3ccc(C4CCNCC4)cc3)ncc2c1=O [Cpd 27, 8-cyclohexyl-5-oxo-2-(4-piperidin-4-yl-phenylamino)-5,8-dihydro-pyrido[2,3-d]pyrimidine-6-carboxylic acid ethoxy-amide] | 1.6 nM
5 | CONC(=O)c1cn(C2CCC(C)(C)CC2)c2nc(Nc3ccc(C4CCN(CCO)CC4)cc3)ncc2c1=O [Cpd 210, 8-(4,4-dimethyl-cyclohexyl)-2-{4-[1-(2-hydroxy-ethyl)-piperidin-4-yl]-phenylamino}-5-oxo-5,8-dihydro-pyrido[2,3-d]pyrimidine-6-carboxylic acid methoxy-amide] | 0.25 nM
6 | CONC(=O)c1cn(-c2ccc3c(c2)CCC3)c2nc(Nc3ccc(C4CCN(C(C)C)CC4)cc3)ncc2c1=O [Cpd 111, 8-indan-5-yl-2-[4-(1-isopropyl-piperidin-4-yl)-phenylamino]-5-oxo-5,8-dihydro-pyrido[2,3-d]pyrimidine-6-carboxylic acid methoxy-amide] | 0.58 nM
7 | CCc1ccc(-n2cc(C(=O)NOC)c(=O)c3cnc(Nc4cccc(NC(=O)CN(C)C)c4)nc32)cc1 [Cpd 228, 2-[3-(2-dimethylamino-acetylamino)-phenylamino]-8-(4-ethyl-phenyl)-5-oxo-5,8-dihydro-pyrido[2,3-d]pyrimidine-6-carboxylic acid methoxy-amide] | 0.68 nM
8 | CONC(=O)c1cn(-c2ccc3c(c2)CCC3)c2nc(Nc3ccc(CN4CCN(C)CC4)cc3)ncc2c1=O [Cpd 128, 8-indan-5-yl-2-[4-(4-methyl-piperazin-1-ylmethyl)-phenylamino]-5-oxo-5,8-dihydro-pyrido[2,3-d]pyrimidine-6-carboxylic acid methoxy-amide] | 1.1 nM
9 | NCCNC(=O)c1cn(C2CCCC2)c2nc(Nc3ccc(CCN4CCCC4)cc3)ncc2c1=O [Cpd 44, 8-cyclopentyl-5-oxo-2-[4-(2-pyrrolidin-1-yl-ethyl)-phenylamino]-5,8-dihydro-pyrido[2,3-d]pyrimidine-6-carboxylic acid (2-amino-ethyl)-amide] | 110 nM
10 | CONC(=O)c1cn(-c2ccc3c(c2)CCC3)c2nc(Nc3cccc(N4CCOCC4)c3)ncc2c1=O [Cpd 325, 8-indan-5-yl-2-(3-morpholin-4-yl-phenylamino)-5-oxo-5,8-dihydro-pyrido[2,3-d]pyrimidine-6-carboxylic acid methoxy-amide] | 0.5 nM
11 | CCONC(=O)c1cn(C2CCCCC2)c2nc(Nc3ccc(CCN4CCCC4)cc3)ncc2c1=O [Cpd 15, 8-cyclohexyl-5-oxo-2-[4-(2-pyrrolidin-1-yl-ethyl)-phenylamino]-5,8-dihydro-pyrido[2,3-d]pyrimidine-6-carboxylic acid ethoxy-amide] | 0.19 nM
12 | O=C(NCCO)c1cn(-c2ccc3c(c2)CCC3)c2nc(Nc3cccc(N4CCNCC4)c3)ncc2c1=O [Cpd 66, 8-indan-5-yl-5-oxo-2-(3-piperazin-1-yl-phenylamino)-5,8-dihydro-pyrido[2,3-d]pyrimidine-6-carboxylic acid (2-hydroxy-ethyl)-amide] | 2.5 nM
13 | C#Cc1ccc(-n2cc(C(=O)NOC)c(=O)c3cnc(Nc4ccc(CCN5CCN(C)CC5)cc4)nc32)cc1 [Cpd 31, 8-(4-ethynyl-phenyl)-2-{4-[2-(4-methyl-piperazin-1-yl)-ethyl]-phenylamino}-5-oxo-5,8-dihydro-pyrido[2,3-d]pyrimidine-6-carboxylic acid methoxy-amide] | 2.6 nM
14 | CONC(=O)c1cn(-c2ccc3c(c2)CCC3)c2nc(Nc3ccc(CCN4C5CCC4CC5)cc3)ncc2c1=O [Cpd 110, 2-{4-[2-(7-aza-bicyclo[2.2.1]hept-7-yl)-ethyl]-phenylamino}-8-indan-5-yl-5-oxo-5,8-dihydro-pyrido[2,3-d]pyrimidine-6-carboxylic acid methoxy-amide] | 0.46 nM
15 | NC(=O)c1cn(-c2ccc3c(c2)CCC3)c2nc(Nc3ccc(CN4CCCC4=O)cc3)ncc2c1=O [Cpd 8, 8-indan-5-yl-5-oxo-2-[4-(2-oxo-pyrrolidin-1-ylmethyl)-phenylamino]-5,8-dihydro-pyrido[2,3-d]pyrimidine-6-carboxylic acid amide] | 1.6 nM
16 | CONC(=O)c1cn(-c2ccc3c(c2)CCC3)c2nc(Nc3ccc(CCN4CCC[C@@H]4C(=O)O)cc3)ncc2c1=O [Cpd 109, (R)-1-{2-[4-(8-indan-5-yl-6-methoxycarbamoyl-5-oxo-5,8-dihydro-pyrido[2,3-d]pyrimidin-2-ylamino)-phenyl]-ethyl}-pyrrolidine-2-carboxylic acid] | 1.1 nM
17 | CCN1CCC(c2ccc(Nc3ncc4c(=O)c(C(=O)NOC)cn(-c5ccc6c(c5)CCC6)c4n3)cc2)CC1 [Cpd 155, 2-[4-(1-ethyl-piperidin-4-yl)-phenylamino]-8-indan-5-yl-5-oxo-5,8-dihydro-pyrido[2,3-d]pyrimidine-6-carboxylic acid methoxy-amide] | 0.12 nM
18 | CONC(=O)c1cn(-c2ccc3c(c2)CCC3)c2nc(Nc3ccc(CCS(C)(=O)=O)cc3)ncc2c1=O [Cpd 71, 8-indan-5-yl-2-[4-(2-methanesulfonyl-ethyl)-phenylamino]-5-oxo-5,8-dihydro-pyrido[2,3-d]pyrimidine-6-carboxylic acid methoxy-amide] | 0.64 nM
19 | CC(C)ONC(=O)c1cn(C2CC2)c2nc(Nc3ccc(CCN4CCCC4)cc3)ncc2c1=O [Cpd 143, 8-cyclopropyl-5-oxo-2-[4-(2-pyrrolidin-1-yl-ethyl)-phenylamino]-5,8-dihydro-pyrido[2,3-d]pyrimidine-6-carboxylic acid isopropoxy-amide] | 130 nM

The remaining compounds from weak to strong by IC50, led by results:

Row | IC50 | SMILES
20 | 7.3 nM | CONC(=O)c1cn(-c2ccc3c(c2)CCC3)c2nc(Nc3ccc(S(=O)(=O)N4CCN(C)CC4)cc3)ncc2c1=O [Cpd 154, 8-indan-5-yl-2-[4-(4-methyl-piperazine-1-sulfonyl)-phenylamino]-5-oxo-5,8-dihydro-pyrido[2,3-d]pyrimidine-6-carboxylic acid methoxy-amide]
21 | 5.3 nM | CNC(=O)c1cn(-c2ccc3c(c2)CCC3)c2nc(Nc3cccc(CCCN(C)C)c3)ncc2c1=O [Cpd 116, 2-[3-(3-dimethylamino-propyl)-phenylamino]-8-indan-5-yl-5-oxo-5,8-dihydro-pyrido[2,3-d]pyrimidine-6-carboxylic acid methylamide]
22 | 4.5 nM | CN(C)C(=O)c1ccc(Nc2ncc3c(=O)c(C(N)=O)cn(-c4ccc5c(c4)CCC5)c3n2)cc1 [Cpd 123, 2-(4-dimethylcarbamoyl-phenylamino)-8-indan-5-yl-5-oxo-5,8-dihydro-pyrido[2,3-d]pyrimidine-6-carboxylic acid amide]
23 | 3.7 nM | C#Cc1ccc(-n2cc(C(=O)NOC)c(=O)c3cnc(Nc4ccc(CCN5CCCC5)cc4)nc32)cc1 [Cpd 32, 8-(4-ethynyl-phenyl)-5-oxo-2-[4-(2-pyrrolidin-1-yl-ethyl)-phenylamino]-5,8-dihydro-pyrido[2,3-d]pyrimidine-6-carboxylic acid methoxy-amide]
24 | 2.2 nM | CONC(=O)c1cn(-c2ccc(F)c(Cl)c2)c2nc(Nc3ccc(CCN4CCN(C)CC4)cc3)ncc2c1=O [Cpd 4, 8-(3-chloro-4-fluoro-phenyl)-2-{4-[2-(4-methyl-piperazin-1-yl)-ethyl]-phenylamino}-5-oxo-5,8-dihydro-pyrido[2,3-d]pyrimidine-6-carboxylic acid methoxy amide]
25 | 1.6 nM | CONC(=O)c1cn(C2CCCCC2)c2nc(Nc3ccc(CCN4CCCC4=O)cc3)ncc2c1=O [Cpd 13, 8-cyclohexyl-5-oxo-2-{4-[2-(2-oxo-pyrrolidin-1-yl)-ethyl]-phenylamino}-5,8-dihydro-pyrido[2,3-d]pyrimidine-6-carboxylic acid methoxy-amide]
26 | 1.6 nM | CONC(=O)c1cn(-c2ccc3c(c2)CCC3)c2nc(Nc3ccc(C(=O)NS(C)(=O)=O)cc3)ncc2c1=O [Cpd 214, 8-indan-5-yl-2-(4-methanesulfonylaminocarbonyl-phenylamino)-5-oxo-5,8-dihydro-pyrido[2,3-d]pyrimidine-6-carboxylic acid methoxy-amide]
27 | 0.9 nM | CCn1cnc2cc(Nc3ncc4c(=O)c(C(=O)NOC)cn(-c5ccc6c(c5)CCC6)c4n3)ccc21 [Cpd 301, 2-(1-ethyl-1H-benzoimidazol-5-ylamino)-8-indan-5-yl-5-oxo-5,8-dihydro-pyrido[2,3-d]pyrimidine-6-carboxylic acid methoxy-amide]
28 | 0.5 nM | CCc1ccc(-n2cc(C(=O)NOC)c(=O)c3cnc(Nc4cccc(N5CCN(C)CC5)c4)nc32)cc1 [Cpd 321, 8-(4-ethyl-phenyl)-2-[3-(4-methyl-piperazin-1-yl)-phenylamino]-5-oxo-5,8-dihydro-pyrido[2,3-d]pyrimidine-6-carboxylic acid methoxy-amide]
29 | 0.3 nM | CONC(=O)c1cn(C2CCCCC2)c2nc(Nc3ccc(CCN4CCN(C)CC4)cc3)ncc2c1=O [Cpd 18, 8-cyclohexyl-2-{4-[2-(4-methyl-piperazin-1-yl)-ethyl]-phenylamino}-5-oxo-5,8-dihydro-pyrido[2,3-d]pyrimidine-6-carboxylic acid methoxy-amide]

— patent US20080114007A1 (priority 2006, published 2008)
